Measured values taken from ChEMBL document CHEMBL4385613, “Discovery of Conformational Control Inhibitors Switching off the Activated c-KIT and Targeting a Broad Range of Clinically Relevant c-KIT Mutants” (J Med Chem, 2019).
Active and inactive are the calls of the source. No cut-off for these calls is given here.

Experiments:
[1] = test system: GIST430; assay: (§1) Antitumor activity against human GIST430 cells harboring c-KIT exon 11 primary in-frame V560-L576 deletion mutant and exon 13 heterozygous secondary missense V654A mutant xenografted in NOD-SCID mouse assessed as reduction in tumor size at 25, po administered for 2 weeks with 2 days rest after day 5 and measured thrice per week up to 14 days during compound dosing relative to control; type: functional; design: scale not given: the % may be the effect or the level left
[2] = test system: Mast/stem cell growth factor receptor Kit (Homo sapiens), P10721 [V654A]; assay: Inhibition of human c-KIT ATP binding domain exon 13 V654A single mutant at 10 nM using poly (Glu,Tyr) 4:1 as substrate in presence of 33P-gamma-ATP by hotspot kinase assay relative to control
Chain of Mast/stem cell growth factor receptor Kit (Homo sapiens), P10721 [V654A] (P10721 whole entry V654A, the tested form may be a part): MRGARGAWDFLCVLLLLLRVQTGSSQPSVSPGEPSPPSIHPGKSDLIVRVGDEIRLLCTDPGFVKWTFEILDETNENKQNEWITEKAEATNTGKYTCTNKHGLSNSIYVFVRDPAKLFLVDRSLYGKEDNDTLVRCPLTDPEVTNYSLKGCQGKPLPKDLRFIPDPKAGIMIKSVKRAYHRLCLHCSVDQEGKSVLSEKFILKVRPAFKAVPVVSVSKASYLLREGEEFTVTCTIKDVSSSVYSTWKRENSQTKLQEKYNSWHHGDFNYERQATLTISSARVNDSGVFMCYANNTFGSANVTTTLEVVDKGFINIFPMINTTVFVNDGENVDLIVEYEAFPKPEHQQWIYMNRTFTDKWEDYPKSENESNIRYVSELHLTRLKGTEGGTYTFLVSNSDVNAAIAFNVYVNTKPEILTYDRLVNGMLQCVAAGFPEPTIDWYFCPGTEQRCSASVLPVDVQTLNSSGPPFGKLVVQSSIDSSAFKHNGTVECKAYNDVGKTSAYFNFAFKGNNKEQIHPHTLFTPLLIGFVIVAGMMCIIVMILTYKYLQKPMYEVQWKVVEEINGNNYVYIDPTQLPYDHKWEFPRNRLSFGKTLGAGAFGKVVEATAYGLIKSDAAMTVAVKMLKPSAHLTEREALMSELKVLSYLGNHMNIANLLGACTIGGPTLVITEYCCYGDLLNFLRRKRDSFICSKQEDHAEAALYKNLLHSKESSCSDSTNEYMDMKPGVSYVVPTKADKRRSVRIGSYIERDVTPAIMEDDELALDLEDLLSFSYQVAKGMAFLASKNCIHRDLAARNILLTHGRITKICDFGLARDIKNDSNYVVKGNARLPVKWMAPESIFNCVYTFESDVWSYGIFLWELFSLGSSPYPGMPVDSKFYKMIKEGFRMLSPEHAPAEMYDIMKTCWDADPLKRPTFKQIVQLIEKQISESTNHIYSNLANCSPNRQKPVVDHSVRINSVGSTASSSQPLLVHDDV

[3] = molecular target: Mast/stem cell growth factor receptor Kit (Homo sapiens, UniProt P10721, V559D/V654A); assay: Inhibition of human c-KIT […] V559D/V654A double mutant using poly (Glu,Tyr) 4:1 as substrate in presence of 33P-gamma-ATP by hotspot kinase assay
Chain of Mast/stem cell growth factor receptor Kit (Homo sapiens, UniProt P10721, V559D/V654A) (P10721 26-976 V559D/V654A limits assumed): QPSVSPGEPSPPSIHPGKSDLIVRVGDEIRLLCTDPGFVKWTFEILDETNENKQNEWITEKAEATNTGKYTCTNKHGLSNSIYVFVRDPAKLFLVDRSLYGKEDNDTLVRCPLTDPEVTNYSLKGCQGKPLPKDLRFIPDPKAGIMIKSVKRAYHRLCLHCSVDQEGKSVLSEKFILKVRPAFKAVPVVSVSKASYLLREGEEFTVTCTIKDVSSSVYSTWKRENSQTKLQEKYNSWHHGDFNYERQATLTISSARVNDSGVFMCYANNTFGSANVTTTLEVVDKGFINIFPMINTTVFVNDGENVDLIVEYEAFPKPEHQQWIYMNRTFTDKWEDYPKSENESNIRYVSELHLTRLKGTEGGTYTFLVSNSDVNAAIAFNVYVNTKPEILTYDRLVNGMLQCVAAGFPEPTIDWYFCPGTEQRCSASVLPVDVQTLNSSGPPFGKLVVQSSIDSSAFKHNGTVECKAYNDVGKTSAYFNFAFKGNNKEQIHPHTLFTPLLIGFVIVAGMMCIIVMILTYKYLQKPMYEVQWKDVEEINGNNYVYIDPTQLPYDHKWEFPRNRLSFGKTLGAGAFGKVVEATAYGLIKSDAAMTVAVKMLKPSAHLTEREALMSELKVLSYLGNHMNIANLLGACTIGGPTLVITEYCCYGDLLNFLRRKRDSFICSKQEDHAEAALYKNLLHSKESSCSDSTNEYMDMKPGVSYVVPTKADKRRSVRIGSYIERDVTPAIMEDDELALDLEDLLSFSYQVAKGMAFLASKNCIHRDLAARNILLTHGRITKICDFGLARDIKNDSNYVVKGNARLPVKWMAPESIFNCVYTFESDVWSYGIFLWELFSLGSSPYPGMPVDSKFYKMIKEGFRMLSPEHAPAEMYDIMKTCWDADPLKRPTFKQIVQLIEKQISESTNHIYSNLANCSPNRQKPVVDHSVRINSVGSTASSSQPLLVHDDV

[4] = test system: GIST430; assay: Antiproliferative activity against human GIST430 cells harboring c-KIT exon 11 primary in-frame V560-L576 deletion mutant and exon 13 heterozygous secondary missense V654A mutant assessed as reduction in cell viability by methylene blue staining based assay; type: functional
[5] = test system: GISTT1; assay: Antiproliferative activity against human GISTT1 cells harboring heterozygous V560-Y578 deletion mutant assessed as reduction in cell viability by MTS assay; type: functional
[6] = test system: GIST882; assay: Antiproliferative activity against human GIST882 cells harboring c-KIT exon 13 homozygous primary K642E mutant assessed as reduction in cell viability by methylene blue staining based assay; type: functional
[7] = molecular target: Mast/stem cell growth factor receptor Kit (Homo sapiens, UniProt P10721, D816V/V560G); assay: Inhibition of human c-KIT A loop exon 11/17 V560G/D816V double mutant using poly (Glu,Tyr) 4:1 as substrate in presence of 33P-gamma-ATP by hotspot kinase assay
Chain of Mast/stem cell growth factor receptor Kit (Homo sapiens, UniProt P10721, D816V/V560G) (P10721 26-976 V560G/D816V limits assumed): as the sequence (P10721 26-976 V559D/V654A limits assumed) above, with D534V, V535G, A629V, D791V counted along it

[8] = test system: Mast/stem cell growth factor receptor Kit (Homo sapiens), P10721 [V560G,N822K]; assay: Inhibition of human c-KIT A loop exon 11/17 V560G/N822K double mutant at 10 nM using poly (Glu,Tyr) 4:1 as substrate in presence of 33P-gamma-ATP by hotspot kinase assay relative to control
Chain of Mast/stem cell growth factor receptor Kit (Homo sapiens), P10721 [V560G,N822K] (P10721 whole entry V560G/N822K): as the sequence (P10721 whole entry V654A, the tested form may be a part) above, with V560G, A654V, N822K counted along it

[9] = test system: Mast/stem cell growth factor receptor Kit (Homo sapiens), P10721 [D816V]; conditions: at 10 nM
Chain of Mast/stem cell growth factor receptor Kit (Homo sapiens), P10721 [D816V] (P10721 whole entry D816V, the tested form may be a part): as the sequence (P10721 whole entry V654A, the tested form may be a part) above, with A654V, D816V counted along it
Description: Inhibition of human c-KIT A loop exon 17 D816V single mutant at 10 nM using poly (Glu,Tyr) 4:1 as substrate in presence of 33P-gamma-ATP by hotspot kinase assay relative to control

[10] = test system: Mast/stem cell growth factor receptor Kit (Homo sapiens), P10721 [UNDEFINED MUTATION]; assay: Inhibition of c-KIT V560-L576 deletion/V654A double mutant phosphorylation in human GIST430 cells assessed as decrease in phosphorylation of MAPK at 10 to 100 nM measured after 24 to 72 hrs by Western blot analysis; type: cell-based
Chain of Mast/stem cell growth factor receptor Kit (Homo sapiens), P10721 [UNDEFINED MUTATION] (P10721 whole entry, looked up, stated change not applied): as the sequence (P10721 whole entry V654A, the tested form may be a part) above, with A654V counted along it

[11] = test system: GIST430; assay: as §1, with “as” for “as reduction in”, “growth inhibition” for “size”, “25 mg/kg,” for “25,”, “21” for “14”, “dosing” for “dosing relative to control”; type: functional, organism-based
[12] = test system: Mast/stem cell growth factor receptor Kit (Homo sapiens), P10721 [V559D,V654A]; assay: Inhibition of human c-KIT […] V559D/V654A double mutant at 100 nM using poly (Glu,Tyr) 4:1 as substrate in presence of 33P-gamma-ATP by hotspot kinase assay relative to control
Chain of Mast/stem cell growth factor receptor Kit (Homo sapiens), P10721 [V559D,V654A] (P10721 whole entry V559D/V654A): as the sequence (P10721 whole entry V654A, the tested form may be a part) above, with V559D counted along it

[13] = AUC in ICR mouse at 10 mg/kg, po administered as single dose measured up to 24 hrs by LC-MS/MS analysis; type: ADME, organism-based; design: dose 10 mg/kg, time < 24 hr, route oral; conditions: in vivo
[14] = test system: Mast/stem cell growth factor receptor Kit (Homo sapiens), P10721 [UNDEFINED MUTATION]; assay: Inhibition of c-KIT V560-L576 deletion/V654A double mutant phosphorylation in human GIST430 cells at 10 to 100 nM measured after 24 to 72 hrs by Western blot analysis; type: cell-based
[15] = test system: Mast/stem cell growth factor receptor Kit (Homo sapiens), P10721 [UNDEFINED MUTATION]; assay: Inhibition of c-KIT V560-L576 deletion/V654A double mutant phosphorylation in human GIST430 cells assessed as decrease in phosphorylation of AKT at 10 to 100 nM measured after 24 to 72 hrs by Western blot analysis; type: cell-based
[16] = molecular target: Mast/stem cell growth factor receptor Kit (Homo sapiens, UniProt P10721, D820E); assay: Inhibition of human c-KIT A loop exon 17 D820E single mutant using poly (Glu,Tyr) 4:1 as substrate in presence of 33P-gamma-ATP by hotspot kinase assay
Chain of Mast/stem cell growth factor receptor Kit (Homo sapiens, UniProt P10721, D820E) (P10721 26-976 D820E limits assumed): as the sequence (P10721 26-976 V559D/V654A limits assumed) above, with D534V, A629V, D795E counted along it

[17] = test system: Mast/stem cell growth factor receptor Kit (Homo sapiens), P10721 [D816H]; conditions: at 100 nM
Chain of Mast/stem cell growth factor receptor Kit (Homo sapiens), P10721 [D816H] (P10721 whole entry D816H, the tested form may be a part): as the sequence (P10721 whole entry V654A, the tested form may be a part) above, with A654V, D816H counted along it
Description: Inhibition of human c-KIT A loop exon 17 D816H single mutant at 100 nM using poly (Glu,Tyr) 4:1 as substrate in presence of 33P-gamma-ATP by hotspot kinase assay relative to control

[18] = molecular target: Mast/stem cell growth factor receptor Kit (Homo sapiens, UniProt P10721); assay: Inhibition of recombinant human N-terminal 6x-His-tagged c-KIT (547 to 935 residues)/(694 to 753 residues deletion) expressed in baculovirus infected Sf9 insect cells assessed as decrease in poly (Glu,Tyr) 4:1 phosphorylation measured after 150 mins in presence of ATP by ADP-glo based luminescence assay
[19] = test system: Mast/stem cell growth factor receptor Kit (Homo sapiens), P10721 [V560G,N822K]; assay: Inhibition of human c-KIT A loop exon 11/17 V560G/N822K double mutant at 100 nM using poly (Glu,Tyr) 4:1 as substrate in presence of 33P-gamma-ATP by hotspot kinase assay relative to control
[20] = test system: Mast/stem cell growth factor receptor Kit (Homo sapiens), P10721 [D820Y]; conditions: at 100 nM
Chain of Mast/stem cell growth factor receptor Kit (Homo sapiens), P10721 [D820Y] (P10721 whole entry D820Y, the tested form may be a part): as the sequence (P10721 whole entry V654A, the tested form may be a part) above, with A654V, D820Y counted along it
Description: Inhibition of human c-KIT A loop exon 17 D820Y single mutant at 100 nM using poly (Glu,Tyr) 4:1 as substrate in presence of 33P-gamma-ATP by hotspot kinase assay relative to control

[21] = test system: Mast/stem cell growth factor receptor Kit (Homo sapiens), P10721 [V560G]; assay: Inhibition of human c-KIT JM domain exon 11 V560G single mutant at 10 nM using poly (Glu,Tyr) 4:1 as substrate in presence of 33P-gamma-ATP by hotspot kinase assay relative to control
Chain of Mast/stem cell growth factor receptor Kit (Homo sapiens), P10721 [V560G] (P10721 whole entry V560G, the tested form may be a part): as the sequence (P10721 whole entry V654A, the tested form may be a part) above, with V560G, A654V counted along it

[22] = test system: Mast/stem cell growth factor receptor Kit (Homo sapiens), P10721 [D816V]; conditions: at 100 nM
Description: Inhibition of human c-KIT A loop exon 17 D816V single mutant at 100 nM using poly (Glu,Tyr) 4:1 as substrate in presence of 33P-gamma-ATP by hotspot kinase assay relative to control

[23] = molecular target: Mast/stem cell growth factor receptor Kit (Homo sapiens, UniProt P10721, V654A); assay: Inhibition of human c-KIT ATP binding domain exon 13 V654A single mutant using poly (Glu,Tyr) 4:1 as substrate in presence of 33P-gamma-ATP by hotspot kinase assay
Chain of Mast/stem cell growth factor receptor Kit (Homo sapiens, UniProt P10721, V654A) (P10721 26-976 V654A limits assumed): as the sequence (P10721 26-976 V559D/V654A limits assumed) above, with D534V counted along it

[24] = Cmax in ICR mouse at 10 mg/kg, po administered as single dose measured up to 24 hrs by LC-MS/MS analysis; type: ADME, organism-based; design: dose 10 mg/kg, route oral; conditions: in vivo
[25] = test system: GIST882; assay: Antiproliferative activity against human GIST882 cells harboring c-KIT exon 13 homozygous primary K642E mutant assessed as reduction in cell viability by MTS assay; type: functional
[26] = test system: Mast/stem cell growth factor receptor Kit (Homo sapiens), P10721 [A829P]; assay: Inhibition of human c-KIT A loop exon 18 A829P single mutant at 100 nM using poly (Glu,Tyr) 4:1 as substrate in presence of 33P-gamma-ATP by hotspot kinase assay relative to control
Chain of Mast/stem cell growth factor receptor Kit (Homo sapiens), P10721 [A829P] (P10721 whole entry A829P): as the sequence (P10721 whole entry V654A, the tested form may be a part) above, with A654V, A829P counted along it

[27] = Antiproliferative activity against human GIST62 cells assessed as reduction in cell viability by methylene blue staining based assay; type: functional
[28] = test system: GIST48; assay: Antiproliferative activity against human GIST48 cells harboring c-KIT exon 11 homozygous primary missense V560D mutant and exon 17 heterozygous secondary D820A mutant assessed as reduction in cell viability by MTS assay; type: functional

## CCc1cc(NC(=O)Nc2ccc(-c3cnc(Nc4cc(N5CCN(CC)CC5)ncn4)s3)cc2)no1
[1]
  Activity: 59%
[2]
  inhibition: 43%
[3]
  IC50: 102 nM
[4]
  GI50: 1 nM
[5]
  GI50: 2.2 nM
[6]
  GI50: 3 nM
[7]
  IC50: 9.27 nM
[8]
  inhibition: 94%
[9]
  inhibition: 37%
[10]
  inhibition: Active
[11]
  TGI: Active
[12]
  inhibition: 43%
[13]
  AUC at 24 h: 2.8 µg·h/mL
[14]
  inhibition: Active
[15]
  inhibition: Active
[16]
  IC50: 0.81 nM
[17]
  inhibition: 96%
[18]
  IC50: 82 nM
[19]
  inhibition: 99%
[20]
  inhibition: 100%
[21]
  inhibition: 95%
[22]
  inhibition: 73%
[23]
  IC50: 4.14 nM
[24]
  Cmax: 0.562 µg/mL
[25]
  GI50: 3 nM
[26]
  inhibition: 99%
[27]
  GI50: > 100 nM
[28]
  GI50: 2 nM
